Earlier results in patent publication US10881104B2, “Arthropod control composition, formulation, and method” (priority 2013, dated 2021).

System: D. variabilis
Details: unformulated; 2 h after application

Question: Which repellency does the source give for CCCCCCCCCC(C)=O [Formulation 2-undecanone, 2-undecanone] here?
Answer: 74%
